Patent publication US8648068B2, “Heterocycloalkyl-containing thienopyrimidines for pharmaceutical compositions” (Boehringer Ingelheim International GmbH, priority 2010, dated 2014)
pIC50: −log10 of the molar value.

Target: T1, human Mnk2a (Homo sapiens, UniProt Q9HBH9)
T1 construct: made in house; host or cells: E. coli BL21 (vector pGEX-4T1)
Test: Mnk2a in vitro kinase assay (indirect fluorescence polarization)
Format: biochemical
Settings: GST-Mnk2a pre-activated with ERK2, 20 μM ATP, 30 μM substrate peptide; read-out: MNK2 IC50
Summary of the method: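 Indirect competitive fluorescence polarization: kinase-generated phospho-product displaces a fluorophore-labelled phospho-peptide from a phospho-specific antibody. Enzyme is N-terminal GST-Mnk2a from E. coli, activated with pre-activated ERK2 and 50 μM ATP; substrate is an amidated 12-mer peptide around eIF4E Ser209.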

T1 sequence (Q9HBH9 whole entry): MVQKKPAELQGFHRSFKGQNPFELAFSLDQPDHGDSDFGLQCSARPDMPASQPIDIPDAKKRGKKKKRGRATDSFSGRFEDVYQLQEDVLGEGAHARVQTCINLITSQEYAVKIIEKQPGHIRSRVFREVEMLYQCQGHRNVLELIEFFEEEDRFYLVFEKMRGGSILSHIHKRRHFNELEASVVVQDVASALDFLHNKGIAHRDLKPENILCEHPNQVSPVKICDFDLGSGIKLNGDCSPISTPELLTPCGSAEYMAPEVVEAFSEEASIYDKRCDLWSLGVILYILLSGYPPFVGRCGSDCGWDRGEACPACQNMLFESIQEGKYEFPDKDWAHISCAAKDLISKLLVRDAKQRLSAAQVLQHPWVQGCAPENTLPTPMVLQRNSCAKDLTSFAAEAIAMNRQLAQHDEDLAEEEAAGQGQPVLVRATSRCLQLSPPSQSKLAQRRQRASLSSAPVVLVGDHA

SMILES	pIC50
COCCONC(=O)c1sc2ncnc(Nc3ccc(F)cc3OC3CCOCC3)c2c1C [Example 245]	7.41
Cc1c(C(=O)NCCCN(C)C)sc2ncnc(Nc3cccnc3O[C@@H]3CCOC3)c12 [Example 268]	7.00
Cc1c(C(=O)NCCCN(C)C)sc2ncnc(Nc3cccnc3O[C@@H]3CCCOC3)c12 [Example 265]	7.47
Cc1c(C(=O)NCCCN(C)C)sc2ncnc(Nc3ccc(F)cc3O[C@@H]3CCOC3)c12 [Example 103, 4-{4-Fluoro-2-[(R)-(tetrahydro-furan-3-yl)oxy]-phenylamino}-5-methyl-thieno[2,3-d]pyrimidine-6-carboxylic acid (3-dimethylamino-propyl)-amide]	7.59
Cc1c(C(=O)NCCCO)sc2ncnc(Nc3ccc(F)cc3O[C@H]3CCCNC3)c12 [Example 16]	7.52
Cc1c(C(=O)NCC(F)(F)F)sc2ncnc(Nc3ccc(F)cc3OC3CCOCC3)c12 [Example 159]	7.36
Cc1c(C(=O)NCCS(=O)(=O)N(C)C)sc2ncnc(Nc3ccc(F)cc3OC3CCCNC3)c12 (stereo not shown) [Example 47]	7.29
Cc1c(C(=O)NCCc2cnn(C)c2)sc2ncnc(Nc3ccc(F)cc3OC3CCOCC3)c12 [Example 171]	7.39
COCCCNC(=O)c1sc2ncnc(Nc3ccc(F)cc3OC3CCOCC3)c2c1C [Example 215]	7.52
Cc1c(C(=O)NC2CCN(C)CC2)sc2ncnc(Nc3ccc(F)cc3O[C@H]3CCOC3)c12 [Example 271, 4-{4-Fluoro-2-[(S)-(tetrahydro-furan-3-yl)oxy]-phenylamino}-5-methyl-thieno[2,3-d]pyrimidine-6-carboxylic acid (1-methyl-piperidin-4-yl)-amide]	7.40
CNC(=O)CCNC(=O)c1sc2ncnc(Nc3ccc(F)cc3OC3CCOCC3)c2c1C [Example 166]	7.43
Cc1c(C(=O)NCCO)sc2ncnc(Nc3cccnc3O[C@@H]3CCCOC3)c12 [Example 260, 5-Methyl-4-{2-[(R)-(tetrahydro-pyran-3-yl)oxy]-pyridin-3-ylamino}-thieno[2,3-d]pyrimidine-6-carboxylic acid (2-hydroxy-ethyl)-amide]	7.41

The next lines start with the values.

pIC50	SMILES
7.47	Cc1c(C(N)=O)sc2ncnc(Nc3cccnc3O[C@H]3CCOC3)c12 [Example 269, 5-Methyl-4-{2-[(S)-(tetrahydro-furan-3-yl)oxy]-pyridin-3-ylamino}-thieno[2,3-d]pyrimidine-6-carboxylic acid amide]
5.36	Cc1c(C(N)=O)sc2ncnc(Nc3ccc(F)cc3O[C@H]3CCCN(CC(C)C)C3)c12 [Example 7]
7.37	Cc1c(C(=O)NCc2cc(F)ccc2F)sc2ncnc(Nc3ccc(F)cc3OC3CCCNC3)c12 (stereo not shown) [Example 57]
8.22	Cc1c(C(N)=O)sc2ncnc(Nc3ccc(F)cc3O[C@@H]3CCCN(Cc4cccn4C)C3)c12 [Example 81]
7.35	CONC(=O)c1sc2ncnc(Nc3ccc(F)cc3OC3CCN(S(C)(=O)=O)C3)c2c1C (stereo not shown) [Example 92]
7.42	Cc1c(C(=O)NCCCCO)sc2ncnc(Nc3ccc(F)cc3OC3CCOCC3)c12 [Example 155]
8.10	Cc1c(C(N)=O)sc2ncnc(Nc3ccc(F)cc3OC3CCN(S(C)(=O)=O)C3)c12 (stereo not shown) [Example 89, 4-[4-Fluoro-2-(1-methanesulfonyl-pyrrolidin-3-yloxy)-phenylamino]-5-methyl-thieno[2,3-d]pyrimidine-6-carboxylic acid amide]
7.41	Cc1c(C(=O)NCCC(N)=O)sc2ncnc(Nc3ccc(F)cc3OC3CCOCC3)c12 [Example 165]
7.33	Cc1c(C(=O)N[C@H]2C[C@@H]2N)sc2ncnc(Nc3ccc(F)cc3OC3CCOCC3)c12 [Example 144]
7.43	Cc1c(C(=O)NCC(=O)O)sc2ncnc(Nc3ccc(F)cc3OC3CCOCC3)c12 [Example 149]
7.40	Cc1c(C(=O)NCC[S+](C)[O-])sc2ncnc(Nc3cccnc3OC3CCOCC3)c12 (stereo not shown) [Example 280]
7.52	Cc1c(C(=O)NCC2CNC(=O)C2)sc2ncnc(Nc3ccc(F)cc3OC3CCOCC3)c12 (stereo not shown) [Example 199]
7.31	Cc1c(C(=O)NCCCc2ccncc2)sc2ncnc(Nc3ccc(F)cc3OC3CCCNC3)c12 (stereo not shown) [Example 56]
7.15	Cc1c(C(=O)N[C@H]2C[C@H]2N)sc2ncnc(Nc3ccc(F)cc3OC3CCOCC3)c12 [Example 136]
7.17	Cc1c(C(=O)N[C@@H](C)C(=O)O)sc2ncnc(Nc3ccc(F)cc3OC3CCOCC3)c12 [Example 148]

Test system: Mnk2 (Mnk2a or Mnk2b) or Mnk1
Test: not given
Settings: cell culture cells transfected with Mnk2 (Mnk2a or Mnk2b) or Mnk1; cited from earlier work

SMILES	reduction of phosphorylated eIF4E
Nc1ncnc2n[nH]c(Nc3ccc(F)cc3)c12 [CGP57380]	strong reduction
